Results on five compounds are retold here after paper PMC11866022, “Long-Chain Cyclic Arylguanidines as Multifunctional Serotonin Receptor Ligands with Antiproliferative Activity” (ACS Omega, 2025).

Where “and” joins values, the source holds several entries; their conditions need not be identical. Equal entries are not always repeated. Bounds are passed on as bounds.

The subject of series [1] is LN-229 glioblastoma cells. Kind of series: Antiproliferative activity (MTS), LN-229. The class given is cell-based, human. The settings on record: Homo sapiens, LN-229; MTS assay, 72 h. The method, then: (§1) These cell lines were characterized by different mutation profiles, the main one being the variable status of the p53 protein. In detail, U87MG cells have a wild-type p53 protein, while astrocytoma and the rest of GBM cells harbor mutated p53 protein. Additional assays were performed on MCF7 breast cancer and AsPC-1 pancreatic cancer cells. The wide range of tested lines was aimed at screening the anticancer potential of the tested compounds. The first represents one of the most common and the second one of the most aggressive cancers in the world. Comparing the activity of compounds on GBM cells to other types of cancer may reveal their selectivity and usefulness in targeted therapies. The cytotoxicity of the compounds on normal human astrocytes (NHA) and Feline catus astrocyte (PG-4) was determined. Tests on normal lines serve to verify the potential toxicity of the tested compounds on healthy cells. Due to the targeting of CNS tumors, astrocytes were selected as normal lines.
(§2) The detailed procedure is presented in previous publications.[53] […] Cells were cultured in appropriate media, supplemented with FBS, antibiotics, and other supplements, and incubated at 37 °C with 5% CO2. […] Cell viability was assessed using the MTS assay, and the inhibitory concentration (IC50) was calculated using GraphPad Prism 8.0. Each compound was tested in triplicate across multiple experiments.

Another series concerns 1321N1 astrocytoma cells. The series can be described thus: Antiproliferative activity (MTS), 1321N1. The settings on record: Homo sapiens, 1321-N1; MTS assay. Type of series: cell-based, human. The method, then: as §1, §2
Supplementary materials - Biological research […]
For orientation: Formazan colour is commonly taken as a measure of viable cells.

A short description of series [2]: Metabolic stability in mouse liver microsomes. Type of series: in vitro ADME. The settings on record: MLMs; for main metabolic pathway / metabolic stability, % of remaining: 120 min. The text has this:
Moving on to the next parameter, which is metabolism, we determined metabolic stability, using mouse liver microsomes (MLMs). […]
Main metabolic pathways are marked in red.
In general terms: Liver microsomes are vesicles of endoplasmic reticulum, rich in cytochrome P450 enzymes.

A short description of series [3]: Affinity to phospholipids, CHI IAM (Valko protocol). Type of series: physicochemical. The settings on record: IAM column. The method, then:
(§3) Lipophilicity and affinity for phospholipids for each investigated molecule were assessed. Additionally, selected compounds with the highest biological activities have been characterized by their affinity plasma proteins. All experiments were performed using protocols developed by Valko.[35] These methods facilitated the calculation of chromatographic hydrophobicity indices (CHI) and plasma protein binding percentages (%PPB) in a biochromatographic experiment, with results compared to the reference. A detailed description of the experiments is provided in the Supporting Information (SI), along with the raw data. […] Although high lipophilicity may limit the medical use of the analyzed compounds since they may tend to accumulate excessively in the human body, it is remarkable that several clinically used drugs also have high lipophilicity. […] (Table 5).
(§4) The detailed procedure is presented in previous publications.[53] High-performance liquid chromatography (HPLC) analyses were conducted using the Prominence-1 LC-2030C 3D system (Shimadzu) with a DAD detector, employing three different chromatographic columns with specific stationary phases and mobile phases. The analysis was performed at 30 °C with a flow rate of 1.5 mL/min for IAM and C18 columns, and 0.9 mL/min for the Chiralpak column. Calibration standards for the columns were sourced from various suppliers and dissolved in dimethyl sulfoxide. Detection occurred in the UV range (190–300 nm) with a 5 μL injection volume. Each compound was analyzed in triplicate. Retention times for the tested compounds and calibration standards are provided in the Supporting Information (Tables S1 and S2).

Series [4] addresses T1, human serum albumin (HSA) (Homo sapiens, UniProt P02768).
T1 construct: purchased
The series can be described thus: HSA binding by biochromatography (HSA column). The class given is in vitro ADME. The settings on record: HSA column. Here is the method:
as §3, §4

The target in the next series is 5-HT5A (Homo sapiens, UniProt P47898). Kind of series: Radioligand binding assay, 5-HT5A ([3H]-LSD). The settings on record: Table 3, unit inferred; 3.5 nM [3H]-LSD. The method, then:
Their functional activity was also evaluated by assessing their ability to inhibit agonist-induced cAMP production in HEK293 cells (Table 3). Extended radioisotope tests were aimed at detecting potential affinity for other aminergic receptors, whose role in cancer treatment may be important. Functions were tested for all receptors. The essence of functional tests results from the fact that serotonin stimulates tumor progression. Therefore, the ligand should have the potential to reduce its concentration, i.e., act as an antagonist.[39]
The detailed procedure is presented in previous publications.[53] Assays were performed by incubating for 1 h at 37 °C (room temperature for 5-HT1A) in 200 μL volumes on 96-well plates. The reaction was terminated by rapid filtration using Unifilter plates, and radioactivity on the filters was measured with a PerkinElmer Microbeta plate reader. Radioligands used were:
Eight concentrations (10^–4 to 10^–11 M) were tested in triplicate for each compound. Inhibition constants (Ki) were calculated using the Cheng–Prusoff equation.[54] The results are expressed as the means of at least two independent experiments.

Series [5] is described as follows: Lipophilicity, chromatographic hydrophobicity index on C18 (Valko protocol). Type of series: physicochemical. The method, then:
as §3, §4

In series [6] the test system is AsPC-1 pancreatic cancer cells. The series can be described thus: Antiproliferative activity (MTS), AsPC-1. The class given is cell-based, human. The settings on record: Homo sapiens, ASPC1; MTS assay, 72 h. Here is the method: as §1, with “The chosen group of ligands was further examined for their ability to inhibit proliferation across multiple cancer cell lines related to the CNS system (1321N1, U87MG, LN-229, and U-251). These” for “These”
(§5) The detailed procedure is presented in previous publications.[53] Briefly, the study utilized various human cancer and normal cell lines, including LN-229 (glioblastoma), MCF7 (breast carcinoma), HepG2 (hepatoma), U-251 (glioblastoma), U87MG (glioblastoma), AsPC-1 (pancreatic adenocarcinoma), and NHA (normal human astrocytes). Cells were cultured in appropriate media, supplemented with FBS, antibiotics, and other supplements, and incubated at 37 °C with 5% CO2. Compounds were dissolved in DMSO, prepared at various concentrations (1–25 μM), and applied to the cells for 72 h. Cell viability was assessed using the MTS assay, and the inhibitory concentration (IC50) was calculated using GraphPad Prism 8.0. Each compound was tested in triplicate across multiple experiments.

For series [7], the system named is normal human astrocytes (NHA). Kind of series: Cytotoxicity (MTS), normal human astrocytes. The class given is cell-based. The settings on record: for IC50: Homo sapiens, Astrocyte, 72 h, normal human astrocytes, MTS assay. The method, then:
as §1, with “The chosen group of ligands was further examined for their ability to inhibit proliferation across multiple cancer cell lines related to the CNS system (1321N1, U87MG, LN-229, and U-251). These” for “These”
as §5

5-HT5A, sequence (P47898 whole entry, species assumed): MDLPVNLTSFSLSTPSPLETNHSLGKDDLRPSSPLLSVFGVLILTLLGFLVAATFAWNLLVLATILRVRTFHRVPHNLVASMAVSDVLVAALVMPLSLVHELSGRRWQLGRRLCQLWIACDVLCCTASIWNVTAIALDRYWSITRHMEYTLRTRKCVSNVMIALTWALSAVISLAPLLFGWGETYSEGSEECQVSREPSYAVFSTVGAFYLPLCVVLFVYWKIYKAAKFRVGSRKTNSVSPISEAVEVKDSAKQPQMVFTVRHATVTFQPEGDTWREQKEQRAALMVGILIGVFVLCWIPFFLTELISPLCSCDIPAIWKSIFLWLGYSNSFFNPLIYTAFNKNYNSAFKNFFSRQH
T1 sequence (P02768 25-609): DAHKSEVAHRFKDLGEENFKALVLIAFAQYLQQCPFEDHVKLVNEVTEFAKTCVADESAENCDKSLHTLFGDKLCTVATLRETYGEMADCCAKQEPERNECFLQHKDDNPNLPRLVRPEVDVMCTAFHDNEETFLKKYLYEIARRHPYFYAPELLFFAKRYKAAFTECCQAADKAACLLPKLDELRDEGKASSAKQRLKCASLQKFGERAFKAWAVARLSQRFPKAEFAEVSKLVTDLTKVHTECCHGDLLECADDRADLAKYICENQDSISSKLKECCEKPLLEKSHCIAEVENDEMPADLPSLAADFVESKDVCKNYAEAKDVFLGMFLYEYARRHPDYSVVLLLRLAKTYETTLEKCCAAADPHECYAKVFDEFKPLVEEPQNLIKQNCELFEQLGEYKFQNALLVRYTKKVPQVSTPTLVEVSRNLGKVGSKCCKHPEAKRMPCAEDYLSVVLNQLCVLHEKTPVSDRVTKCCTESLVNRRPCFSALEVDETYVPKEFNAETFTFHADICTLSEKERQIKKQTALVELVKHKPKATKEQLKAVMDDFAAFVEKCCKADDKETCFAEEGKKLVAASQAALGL

The IC50 is the concentration that gives 50% inhibition. For orientation: Ki means a dissociation constant, usually derived from enzyme kinetics or from competition with a known ligand. Read a high Ki as a looser hold on the target. `O=S(=O)(c1cccc2ccccc12)N1CCN(CCNC2=Nc3ccccc3CN2)CC1` [PP 6, N-{2-[4-(Naphthalene-1-sulfonyl)piperazin-1-yl]ethyl}-3,4-dihydroquinazolin-2-amine] registered an IC50 in series [1] above 25 µM. The compound also yielded an IC50 with 1321N1 astrocytoma cells of 20.9 ± 1.4 µM. Moreover, in series [2], the main metabolic pathway result is “double hydroxylation and double bond reduction”; the “metabolic stability, % of remaining” value is on record as 72.76%. Further, in series [3], the “CHI IAM” value came to 50.9. For the same compound, in [4], the “%HSA” value is reported as 97.2%; the logKHSA is 1.41 and 1.4. The same compound returned a Ki on 5-HT5A of 0.328 µM. Further, in [5], the “CHI C18 pH 2.6” value came out at 92.9, the “CHI C18 pH 7.4” value was found to be 101.5 and the “CHI C18 pH 10.5” value was 138.2. Also, in series [6], the IC50 was above 25 µM.
As to `CC1NC(NCCCCCCNS(=O)(=O)c2cccc3ccccc23)=Nc2ccccc21` (stereo not drawn) [PP 10, N-{6-[(4-Methyl-3,4-dihydroquinazolin-2-yl)amino]hexyl}naphthalene-1-sulfonamide], the IC50 in [1] was above 25 µM. Further, in the series on 1321N1 astrocytoma cells, half-maximal inhibition (IC50) was put at 13.4 ± 0.8 µM. Moreover, in series [2], the “number of potential metabolites identified” value was determined as 14; the main metabolic pathway entry is “double hydroxylation and double bond reduction or double hydroxylation and ring opening”; the “metabolic stability, % of remaining” value was 66.60%. The “CHI IAM” value in series [3] worked out at 56.4. Also, in series [4], the “%HSA” value is 97.7%; the logKHSA was 1.47 and 1.5. Also, the affinity at 5-HT5A corresponds to a Ki of 0.059 µM. Moreover, the IC50 in series [7] turned out to be 12.6 ± 0.4 µM. Also, in [5], the “CHI C18 pH 2.6” value amounted to 89.8, the “CHI C18 pH 7.4” value worked out at 99.7 and the “CHI C18 pH 10.5” value is recorded as 120.4. The IC50 in [6] was above 25 µM.
In series [1], `CC1NC(NCCCCCCNS(=O)(=O)c2c(Cl)ccc3ccccc23)=Nc2ccccc21` (stereo not drawn) [PP 13, 2-Chloro-N-{6-[(4-methyl-3,4-dihydroquinazolin-2-yl)amino]hexyl}naphthalene-1-sulfonamide] yielded an IC50 above 25 µM. The same compound returned an IC50 in the series with 1321N1 astrocytoma cells of 9.6 ± 1.8 µM. In series [2], the “number of potential metabolites identified” value is reported as 11; the main metabolic pathway entry was “ring opening and triple hydroxylation”; the “metabolic stability, % of remaining” value stood at 52.60%. Further, the “CHI IAM” value in series [3] stood at 59.9. Also, in series [4], the “%HSA” value was above 99.8%. The compound also displayed an IC50 in series [7] of 4.2 ± 0.4 µM. Besides, in series [5], the “CHI C18 pH 2.6” value stood at 115.8, the “CHI C18 pH 7.4” value was 105.7 and the “CHI C18 pH 10.5” value was 128.8. In [6], the half-inhibitory concentration (IC50) was 14.6 ± 0.5 µM.
In series [1], `O=S(=O)(NCCCCCCNc1ncc2ccccc2n1)c1cccc2ccccc12` [PP 15, N-{6-[(Quinazolin-2-yl)amino]hexyl}naphthalene-1-sulfonamide] showed an IC50 above 25 µM. This compound also had an IC50 in the series with 1321N1 astrocytoma cells above 25 µM. In series [2], the main metabolic pathway entry is reported as “hydroxylation” and the “metabolic stability, % of remaining” value is listed as 48.07%. Moreover, in series [3], the “CHI IAM” value was found to be 45.8. Besides, in [4], the “%HSA” value is on record as 97.8%; the logKHSA is 1.48 and 1.5. Besides, the Ki on 5-HT5A is 1.09 µM. In series [5], the “CHI C18 pH 2.6” value was determined as 99, the “CHI C18 pH 7.4” value amounted to 104.4 and the “CHI C18 pH 10.5” value worked out at 107.2. Besides, the IC50 in series [6] is above 25 µM.
In series [1], `O=S1(=O)c2cccc3cccc(c23)N1CCCCCCNC1=Nc2ccccc2CN1` [PP 24, 3-{6-[(3,4-Dihydroquinazolin-2-yl)amino]hexyl}-2λ^6-thia-3-azatricyclo[6.3.1.0^4,^12]dodeca-1(11),4(12),5,7,9-pentaene-2,2-dione] showed an IC50 of 18.4 ± 1.1 µM. For the same compound, in the series on 1321N1 astrocytoma cells, the IC50 was 8.4 ± 1.9 µM. In series [2], the main metabolic pathway result was “hydroxylation” and the “metabolic stability, % of remaining” value amounted to 93.13%. The “CHI IAM” value in [3] is recorded as 56.5. Besides, in series [4], the “%HSA” value stood at 98.8%; the logKHSA was 1.65 and 1.6. In series [7], this compound registered an IC50 of 7.9 ± 0.4 µM. For the same compound, in [7] (normal astrocytes versus cancer cell lines), the selectivity index result is reported as “below 1”. In [5], the “CHI C18 pH 2.6” value is given as 84.7, the “CHI C18 pH 7.4” value worked out at 103.2 and the “CHI C18 pH 10.5” value is listed as 127. In addition, the IC50 in [6] amounted to 12.1 ± 1 µM.
